Test results reported in patent US11421218B2, “Methods for enhancing the efficiency of gene editing” (Dana-Farber Cancer Institute, Inc., priority 2016, dated 2022).
“Also recorded” adds a separate entry of the source.

Legend:
RAD51 foci = RAD51 foci formation by immunofluorescence in MMC-treated GM6914 cells; format: cell-based; conditions: GM6914 (FA-A) or GM6914+FANCA cells, 1 μM MMC, 10 μM inhibitors, 6 h
Description: GM6914 (FA-A) cells or corrected GM6914+FANCA cells were treated with 1 μMMMC and 10 μM inhibitors for 6 h before immunofluorescence analysis. Representative images (FIG. 3E) and quantification (FIG. 3F) of RAD51 foci are shown, (Scale bar: 50 μm).

[1] = tested on: U2OS cells with DR-GFP reporter; experiment: Homologous recombination assay, U2OS cells with DR-GFP reporter; format: cell-based; conditions: 10 μM
Description: Homologous recombination assay was measured in U2OS cells with DR-GFP reporter after treatment with 10 μM RI-1 and 10 μM B02. The representative of two independent experiments is presented.
HR assay was measured in U2OS cells with DR-GFP reporter after transduction with lentivirus encoding indicated shRNAs. The representative of three independent experiments is presented.

HSPCs = experiment: HSPC survival with RAD51 inhibitors (cytotoxicity); format: cell-based; conditions: HSPCs from WT or Fancd2−/− mice, 10 μM, in vitro five days
Description: HSPCs from WT or Fancd2−/− mice were treated with B02 (10 μM) or RI-1 (10 μM) in vitro for five days and survival was determined.

[2] = tested on: GM6914 cells (FA-A cells); experiment: Traffic light reporter assay of HR and NHEJ repair events; format: cell-based; conditions: GM6914 cells exposed to SD-208 for 72 hrs
Source text: FIGS. 4A-4B are graphs showing that TGF-β pathway inhibition affects the choice of HR versus NHEJ pathways in repairing individual DNA breakpoints in FA cells. GM6914 cells (FA-A cells) or FANCA corrected GM6914 cells with shControl or shSMAD3 were used to generate traffic light reporter system, and then were infected with GFP-donor template and I-SceI lentivirus to generate DNA breakpoints. Quantification analysis of HR and NHEJ repair events is shown. (FIG. 4B) The ratio of HR to NHEJ activity based on the data in (FIG. 4A).
Quantification of HR and NHEJ repair events in GM6914 cells exposed to SD-208 for 72 hrs as detected by traffic light reporter assay described in FIG. 4A.
FIG. 5A is a schematic of traffic light reporter assay. Endonuclease 1-SceI induces double strand break (DSB) in the restriction site. […]
FIG. 5B is a graph showing HR and NHEJ repair analyzed by traffic light reporter (TLR) system. […] HR and NHEJ repair events (GFP or mCherry positive cells) were quantified by flow cytometry.
To directly confirm that inhibition of TGF-β pathway modulates HR or NHEJ activity, we engineered an individual DNA breakpoint in FA (GM6914) cells and employed the traffic light reporter […] system which quantifies both HR and NHEJ activities (Certo et al., 2011). […]

gamma H2AX foci = experiment: pIpC stress in mice, gamma H2AX foci; conditions: wild-type or Fancd2-deficient mice, pretreated in vivo
Source text: (§1) FIG. 6A is a schematic showing that wild-type or Fancd2-deficient mice were exposed to the physiologic stress, pIpC. Mice were pretreated in vivo with either no Tgfβ inhibitor, the neutralizing antibody to Tgfβ 1, 2, 3, or the Tgfβ receptor kinase inhibitor, Galunisertib. Long-term HSCs (LT-HSCs) were isolated and subjected to functional tests.

TGFβ signaling = experiment: Physiological stress (pIpC)-induced bone marrow failure in mice; conditions: pretreated in vivo
Source text: as §1

LT-HSCs = experiment: pIpC stress in mice, comet assay on LT-HSCs; conditions: wild-type or Fancd2-deficient mice, pretreated in vivo
Source text: as §1

Structure (SMILES)	RAD51 foci formation (RAD51 foci)	HR efficiency [1]	cytotoxicity in HSPCs (survival) (HSPCs)	other results
O=C1C(Cl)=C(N2CCOCC2)C(=O)N1c1ccc(Cl)c(Cl)c1 [RI-1]	efficiently block RAD51 foci formation	significantly decrease HR efficiency	do not show cytotoxicity in HSPCs	–
Fc1ccc(Cl)cc1-c1nc(Nc2ccncc2)c2nccnc2n1 [SD208, 2-(5-Chloro-2-fluorophenyl)-4-[(4-pyridyl)amino]pteridine]	–	–	–	HR repair events [2]: increased HR activity in FA cells; also recorded: increases FIR events; NHEJ repair events [2]: decreases NHEJ events
O=c1c2ccccc2nc(/C=C/c2cccnc2)n1Cc1ccccc1 [B02]	efficiently block RAD51 foci formation	significantly decrease HR efficiency	do not show cytotoxicity in HSPCs	–
Cc1cccc(-c2nn3c(c2-c2ccnc4ccc(C(N)=O)cc24)CCC3)n1 [Galunisertib, 4-[2-(6-methylpyridin-2-yl)-5,6-dihydro-4H-pyrrolo[1,2-b]pyrazol-3-yl]quinoline-6-carboxamide]	–	–	–	pIpC-induced DNA damage, gamma H2AX foci (gamma H2AX foci): rescued the pIpC-induced DNA damage; physiological stress-induced bone marrow failure (TGFβ signaling): rescues physiological stress-induced bone marrow failure in mice; pIpC-induced DNA damage in LT-HSCs, comet assay (LT-HSCs): rescued the pIpC-induced DNA damage
